The structures appear in SMILES notation. Where two headings read alike, the source gives them in different places.

Data set [1] in a line: Measured pKa in the indicated formulation. The note with it: for pKa: EPO: measured in EPO formulation; for pKa: FVII: measured in FVII formulation.
Procedure: Measured pKa values were determined based on the pH measured in the indicated formulation (i.e., EPO or FVII formulation).
Data set [2] is described as follows: Mouse plasma stability. The class given is in vitro ADME, CD-1 mouse. As to conditions: 1 uM lipid. An outline of the steps:
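Lipid at 1 μM starting concentration incubated in stirred CD-1 mouse plasma (sodium heparin) at 37° C.; samples at 0–120 min quenched with acetonitrile/methanol plus internal standard. LC-MS peak area relative to T=0 gave % remaining; T1/2 from first-order decay.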

Data set [3] is described as follows: In vivo biodegradability assay (lipid in liver). As to conditions: mouse liver, 48 h.
Procedure: In vivo biodegradability assay was performed to assess the biodegradability of lipids in the LNP. Briefly, mice were injected with either 0.1 or 0.03 mg/Kg dose and after 24 or 48 hours mice livers were collected. To measure the concentration of lipids in the mouse liver, liver samples were homogenized in appropriate buffer in 1-10 dilution and mixed with the same amount of stabilized plasma. The samples were then mixed with organic solvents spiked with internal standard to precipitate proteins. After centrifugation, supernatant was diluted further with organic solvent before sample analysis by LC-MS. In LC-MS analysis, positive electrospray ionization was used, and multiple reaction monitoring (MRM) parameters were set up to specifically target the lipid analyte and internal standard. Calibration standards were prepared in stabilized plasma and mixed with same amount of homogenization buffer before protein precipitation. Quality control samples with known amounts of lipid was prepared in blank liver homogenate to monitor the precision and accuracy of the assay.
Data set [4] has as its system hEPO. Nature of the data set: hEPO mRNA expression evaluation (hEPO-LNPs). The class given is in vivo, Balb/c mice. As to conditions: serum hEPO after 6 hr; for EPO exprssn (ng/mL) 0.1 mpk: 0.1 mpk i.v.; for EPO exprssn (ng/mL) 0.03 mpk: 0.03 mpk i.v.
Data set [5] relates to factor VII. The experiment in a line: Factor VII knock down evaluation (LNP with FVII siRNA). The class given is in vivo, Balb/C mice. As to conditions: for FVII KD % 0.01 mpk: 0.01 mpk i.v.; for FVII KD % 0.01 mpk / FVII KD % 0.03 mpk: plasma FVII after 48 h vs saline control; for FVII KD % 0.03 mpk: 0.03 mpk i.v. An outline of the steps: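 Female Balb/C mice, 7–8 weeks old, received FVII siRNA lipid nanoparticles intravenously at 0.03 or 0.01 mg/kg. Plasma was collected 48 h later and FVII protein measured by chromogenic assay at 405 nm against a control plasma calibration curve. Levels are relative to saline-treated controls.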

Data set [6] in a line: Lipid nanoparticle size, PDI and encapsulation. The class given is physicochemical. As to conditions: Table 3; for Size (nm): lipid nanoparticle; for EE %: lipid nanoparticle encapsulation. The procedure: In the context of nucleic acids, full encapsulation may be determined by performing a membrane-impermeable fluorescent dye exclusion assay, which uses a dye that has enhanced fluorescence when associated with nucleic acid. Encapsulation is determined by adding the dye to a lipid formulation, measuring the resulting fluorescence, and comparing it to the fluorescence observed upon addition of a small amount of nonionic detergent. Detergent-mediated disruption of the lipid layer releases the encapsulated nucleic acid, allowing it to interact with the membrane-impermeable dye. Nucleic acid encapsulation may be calculated as E=(I0−I)/I0, where I and I0 refer to the fluorescence intensities before and after the addition of detergent.

Data set [7] in a line: Lipid nanoparticle size, PDI and encapsulation. The note with it: Table 3. The data set is classed as physicochemical.

What is called pKa is the pH at which an ionisable group is half protonated. Regarding `CC1CCC(CC(=O)OCC(COC(=O)CC2CCC(C)CC2)OC(=O)CCCN(CCCC(=O)OC(COC(=O)CC2CCC(C)CC2)COC(=O)CC2CCC(C)CC2)C(=O)SCCCN(C)C)CC1` (centres unmarked) [LIPID 15, ((4,4′-((((3-(Dimethylamino)propyl)thio)carbonyl)azanediyl)bis(butanoyl))bis(oxy))bis(propane-2,1,3-triyl)tetrakis(2-(4-methylcyclohexyl)acetate)], the pKa in data set [1] (EPO formulation) was 6.57; in data set [1] (FVII formulation), 6.45. For the same compound, in data set [1] (Table 2), the “pKa: EPO” value is listed as 6.57. In data set [1] (Table 2), the “pKa: FVII” value is 6.45. The “Percent remaining in mouse plasma after 2 h” value (“Percent remaining” below) in data set [2] (Table 1, mouse plasma 37 C) is recorded as 256%; in data set [2] (Table 2, mouse plasma 37 C), 100%. Also, the “In vivo degradability (ng/tissue) at 48h 0.03 mpk” value in data set [3] (Table 1) and in data set [3] (Table 2) was under 340 ng/tissue each time. Besides, the “In vivo degradability (ng/tissue) at 48h 0.1 mpk” value in data set [3] (Table 1) and in data set [3] (Table 2) was under 340 ng/tissue each time. In addition, in data set [4] (Table 2), the “EPO exprssn (ng/mL) 0.1 mpk” value came to 1899 ng/mL. The “FVII KD % 0.01 mpk” value in data set [5] (Table 2) was 66.8%. The “FVII KD % 0.03 mpk” value in data set [5] (Table 2) was 89.7%.
For `CCC1CCC(C(=O)OCC(COC(=O)C2CCC(CC)CC2)OC(=O)CCCN(CCCC(=O)OC(COC(=O)C2CCC(CC)CC2)COC(=O)C2CCC(CC)CC2)C(=O)SCCCN(C)C)CC1` (centres unmarked) [LIPID 16, ((4,4′-((((3-(Dimethylamino)propyl)thio)carbonyl)azanediyl)bis(butanoyl))bis(oxy))bis(propane-2,1,3-triyl)tetrakis(4-ethylcyclohexane-1-carboxylate)], the figures for the pKa in data set [1] (EPO formulation) and in data set [1] (FVII formulation) were 6.5 and 6.45, respectively. Further, in data set [1] (Table 1), the “pKa: EPO” value is on record as “(6.50/”. Further, in data set [1] (Table 1), the “pKa: FVII” value was 6.45). Also, the “Percent remaining” value in data set [2] (Table 1, mouse plasma 37 C) turned out to be 40%; in data set [2] (Table 2, mouse plasma 37 C) it was 40%. Also, the “In vivo degradability (ng/tissue) at 48h 0.03 mpk” value in data set [3] (Table 1) and in data set [3] (Table 2) was under 340 ng/tissue in each case. In addition, the “In vivo degradability (ng/tissue) at 48h 0.1 mpk” value in data set [3] (Table 1) and in data set [3] (Table 2) was under 340 ng/tissue throughout. Moreover, the “EPO exprssn (ng/mL) 0.03 mpk” value in data set [4] (Table 1) is 2088 ng/mL. Also, the “EPO exprssn (ng/mL) 0.1 mpk” value in data set [4] (Table 1) worked out at 6358 ng/mL; in data set [4] (Table 2) it was 2088 ng/mL. The “FVII KD % 0.01 mpk” value in data set [5] (Table 1) and in data set [5] (Table 2) was 58% throughout. The “FVII KD % 0.03 mpk” value in data set [5] (Table 1) and in data set [5] (Table 2) was 88% throughout.
On to `CC(CC1CCCCC1)C(=O)OCC(COC(=O)C(C)CC1CCCCC1)OC(=O)CCCN(CCCC(=O)OC(COC(=O)C(C)CC1CCCCC1)COC(=O)C(C)CC1CCCCC1)C(=O)SCCCN(C)C` (centres unmarked) [LIPID 17, ((4,4′-((((3-(Dimethylamino)propyl)thio)carbonyl)azanediyl)bis(butanoyl))bis(oxy))bis(propane-2,1,3-triyl)tetrakis(3-cyclohexyl-2-methylpropanoate)], for which the pKa in data set [1] (EPO formulation) and in data set [1] (FVII formulation) was 6.35 in each case. Further, in data set [1] (Table 1), the “pKa: EPO” value is reported as “(6.35/”. Further, in data set [1] (Table 2), the “pKa: FVII” value is “(6.35/6.35)”. For the same compound, the “Percent remaining” value in data set [2] (Table 2, mouse plasma 37 C) amounted to 100%. Besides, the “In vivo degradability (ng/tissue) at 48h 0.03 mpk” value in data set [3] (Table 1) and in data set [3] (Table 2) was “BLOQ” in each case. Also, the “In vivo degradability (ng/tissue) at 48h 0.1 mpk” value in data set [3] (Table 1) and in data set [3] (Table 2) was “BLOQ” each time. In addition, in data set [4] (Table 1), the “EPO exprssn (ng/mL) 0.03 mpk” value was 1082 ng/mL. Also, the entries for the “EPO exprssn (ng/mL) 0.1 mpk” value in data set [4] (Table 1) and in data set [4] (Table 2) were 1555 ng/mL and 1082 ng/mL, respectively. Besides, the “FVII KD % 0.01 mpk” value in data set [5] (Table 1) and in data set [5] (Table 2) was 55% each time. Moreover, the “FVII KD % 0.03 mpk” value in data set [5] (Table 1) and in data set [5] (Table 2) was 81% throughout.
In the case of `CCCCCCC(C)C(=O)OCC(COC(=O)C(C)CCCCCC)OC(=O)CCCN(CCCC(=O)OC(COC(=O)C(C)CCCCCC)COC(=O)C(C)CCCCCC)C(=O)SCCCN(C)C` (centres unmarked) [LIPID 18, ((4,4′-((((3-(Dimethylamino)propyl)thio)carbonyl)azanediyl)bis(butanoyl))bis(oxy))bis(propane-2,1,3-triyl)tetrakis(2-methyloctanoate)], the pKa was 6.44 in data set [1] (EPO formulation) and 6.49 in data set [1] (FVII formulation). Also, the “pKa: EPO” value in data set [1] (Table 2) is listed as 6.44. Further, the “pKa: FVII” value in data set [1] (Table 2) is 6.49. Moreover, the “Percent remaining” value in data set [2] (Table 1, mouse plasma 37 C) is recorded as 100%; in data set [2] (Table 2, mouse plasma 37 C), 100%. The “In vivo degradability (ng/tissue) at 48h 0.03 mpk” value in data set [3] (Table 1) and in data set [3] (Table 2) was under 340 ng/tissue each time. In addition, the “In vivo degradability (ng/tissue) at 48h 0.1 mpk” value in data set [3] (Table 1) and in data set [3] (Table 2) was 639 ng/tissue throughout. The “EPO exprssn (ng/mL) 0.1 mpk” value in data set [4] (Table 1) and in data set [4] (Table 2) was 1081 ng/mL in each case. For the same compound, the “FVII KD % 0.01 mpk” value in data set [5] (Table 1) and in data set [5] (Table 2) was 60% each time. Also, the “FVII KD % 0.03 mpk” value in data set [5] (Table 1) and in data set [5] (Table 2) was 88% throughout.
In the case of `CN(C)CCCSC(=O)N(CCCC(=O)OC(COC(=O)CCc1ccc(-c2ccccc2)cc1)COC(=O)CCc1ccc(-c2ccccc2)cc1)CCCC(=O)OC(COC(=O)CCc1ccc(-c2ccccc2)cc1)COC(=O)CCc1ccc(-c2ccccc2)cc1` [Lipid 42, ((4,4′-((((3-(dimethylamino)propyl)thio)carbonyl)azanediyl)bis(butanoyl))bis(oxy))bis(propane-2,1,3-triyl)tetrakis(3-([1,1′-biphenyl]-4-yl)propanoate)], in data set [6], the “Size (nm)” value was found to be 100.4 nm and the EE % is reported as 88.2%. In data set [7], this compound returned a PDI of 0.086.
The like results for `CN(C)CCCSC(=O)N(CCCC(=O)OC(COC(=O)CCc1ccc2ccccc2c1)COC(=O)CCc1ccc2ccccc2c1)CCCC(=O)OC(COC(=O)CCc1ccc2ccccc2c1)COC(=O)CCc1ccc2ccccc2c1` [Lipid 44, ((4,4′-((((3-(dimethylamino)propyl)thio)carbonyl)azanediyl)bis(butanoyl))bis(oxy))bis(propane-2,1,3-triyl)tetrakis(3-(naphthalen-2-yl)propanoate)] were, in that order, 113.1 nm, 85.7% and 0.134.
Turning to `CC1CCC(CCC(=O)OCC(C)(COC(=O)CCC2CCC(C)CC2)COC(=O)CCN(CCC(=O)OCC(C)(COC(=O)CCC2CCC(C)CC2)COC(=O)CCC2CCC(C)CC2)C(=O)NCCCN(C)C)CC1` (centres unmarked) [Lipid 47, (((3,3′-((((3-dimethylamino)propyl)carbamoyl)azanediyl)bis(propanoyl))bis(oxy))bis(methylene))bis(2-methylpropane-2,1,3-triyl)tetrakis(3-(4-methylcyclohexyl)propanoate)], in data set [6], the “Size (nm)” value came to 98.26 nm and the EE % was 98.9%. The same compound yielded a PDI in data set [7] of 0.089.
As for `CC1CCC(CCC(=O)OCC(C)(COC(=O)CCC2CCC(C)CC2)COC(=O)CCN(CCC(=O)OCC(C)(COC(=O)CCC2CCC(C)CC2)COC(=O)CCC2CCC(C)CC2)C(=O)N(C)CCCN(C)C)CC1` (centres unmarked) [Lipid 48, (((3,3′-((((3-dimethylamino)propyl)methylcarbamoyl)azanediyl)bis(propanoyl))bis(oxy))bis(methylene))bis(2-methylpropane-2,1,3-triyl)tetrakis(3-(4-methylcyclohexyl)propanoate)], in data set [1], the pKa came out at 7.18. Moreover, in data set [6], the “Size (nm)” value was 103.2 nm and the EE % stood at 96.2%. The PDI in data set [7] is on record as 0.065.
For the compound `CC1CCC(CCC(=O)OCC(C)(COC(=O)CCC2CCC(C)CC2)COC(=O)CCN(CCC(=O)OCC(C)(COC(=O)CCC2CCC(C)CC2)COC(=O)CCC2CCC(C)CC2)C(=O)CCCCN(C)C)CC1` (centres unmarked) [Lipid 49, (((3,3′-((5-(dimethylamino)pentanoyl)azanediyl)bis (propanoyl))bis(oxy))bis(methylene))bis(2-methylpropane-2,1,3-triyl)tetrakis(3-(4-methylcyclohexyl)propanoate)], the pKa in data set [1] is 7.5. For the same compound, in data set [6], the “Size (nm)” value is recorded as 97.23 nm and the EE % is 98.9%. Also, in data set [7], the PDI is 0.028. Further, the “FVII KD % @ 0.03 mg/kg” value in data set [5] (Table 3, 0.03 mg/kg) is 3.57%.
